Measurements reported in ChEMBL document CHEMBL3352610, “Discovery of potent and selective GIRK1/2 modulators via 'molecular switches' within a series of 1-(3-cyclopropyl-1-phenyl-1H-pyrazol-5-yl)ureas” (Bioorg Med Chem Lett, 2014).
The source made the active and inactive calls. The calls are words filed in the database; no cut-off is given here.

Assays:
Kir3.1/Kir3.4 = target: T1, Kir3.1/Kir3.4 (Homo sapiens, UniProt P48544+P48549); assay: Activation of GIRK1/4 (unknown origin) by thallium-flux based assay; assay type: protein-complex assay
T1 sequence (P48549 whole entry): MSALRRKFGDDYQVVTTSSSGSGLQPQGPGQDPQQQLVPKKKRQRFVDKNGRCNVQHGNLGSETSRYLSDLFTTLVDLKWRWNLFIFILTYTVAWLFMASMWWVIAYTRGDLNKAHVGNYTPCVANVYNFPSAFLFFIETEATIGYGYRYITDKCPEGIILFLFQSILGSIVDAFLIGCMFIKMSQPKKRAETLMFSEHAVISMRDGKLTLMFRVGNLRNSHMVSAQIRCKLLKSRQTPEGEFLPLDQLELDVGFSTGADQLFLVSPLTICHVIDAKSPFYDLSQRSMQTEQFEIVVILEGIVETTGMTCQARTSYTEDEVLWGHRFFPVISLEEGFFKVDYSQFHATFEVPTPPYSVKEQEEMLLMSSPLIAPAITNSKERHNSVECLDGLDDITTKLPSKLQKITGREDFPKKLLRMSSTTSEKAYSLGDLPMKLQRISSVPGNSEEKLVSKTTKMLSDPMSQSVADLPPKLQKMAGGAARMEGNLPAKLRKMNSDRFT
T1 sequence (P48544 whole entry): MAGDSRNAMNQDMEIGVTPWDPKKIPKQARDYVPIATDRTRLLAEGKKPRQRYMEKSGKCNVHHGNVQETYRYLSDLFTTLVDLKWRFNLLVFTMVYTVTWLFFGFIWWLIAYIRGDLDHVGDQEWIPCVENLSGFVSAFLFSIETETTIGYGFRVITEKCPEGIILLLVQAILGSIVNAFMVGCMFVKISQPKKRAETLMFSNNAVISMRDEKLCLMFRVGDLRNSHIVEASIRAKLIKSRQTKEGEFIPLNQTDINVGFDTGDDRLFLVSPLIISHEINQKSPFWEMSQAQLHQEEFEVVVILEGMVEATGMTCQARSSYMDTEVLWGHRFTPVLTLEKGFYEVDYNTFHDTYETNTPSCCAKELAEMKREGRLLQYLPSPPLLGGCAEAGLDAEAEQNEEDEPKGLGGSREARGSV

[1] = target: Kir3.1/Kir3.4 (Homo sapiens) (UniProt P48549+P48544); assay: Activation of GIRK1/4 (unknown origin) by thallium-flux based assay relative to ML297; assay type: protein-complex assay
Kir3.1/Kir3.2 = target: T2, Kir3.1/Kir3.2 (Homo sapiens, UniProt P48051+P48549); assay: Activation of GIRK1/2 (unknown origin) by thallium-flux based assay; assay type: protein-complex assay
T2 sequence (P48549 whole entry): T1 sequence (P48549 whole entry)
T2 sequence (P48051 whole entry): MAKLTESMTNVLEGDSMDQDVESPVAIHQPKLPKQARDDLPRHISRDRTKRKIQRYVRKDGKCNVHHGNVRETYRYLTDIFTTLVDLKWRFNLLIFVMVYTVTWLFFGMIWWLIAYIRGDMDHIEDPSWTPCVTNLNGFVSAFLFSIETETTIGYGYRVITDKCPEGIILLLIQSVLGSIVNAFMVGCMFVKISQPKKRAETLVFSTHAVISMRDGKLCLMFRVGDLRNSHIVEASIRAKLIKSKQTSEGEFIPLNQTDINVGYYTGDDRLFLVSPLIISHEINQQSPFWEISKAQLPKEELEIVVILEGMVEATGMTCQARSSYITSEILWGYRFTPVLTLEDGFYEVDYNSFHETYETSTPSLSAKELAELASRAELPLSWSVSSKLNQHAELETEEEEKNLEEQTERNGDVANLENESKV

[2] = target: Kir3.1/Kir3.2 (Homo sapiens) (UniProt P48549+P48051); assay: Activation of GIRK1/2 (unknown origin) by thallium-flux based assay relative to ML297; assay type: protein-complex assay
[3] = target: Kir3.2/Kir3.3 (Homo sapiens) (UniProt P48051+Q92806); assay: Modulation of GIRK2/3 (unknown origin) by thallium-flux based assay; assay type: protein-complex assay
[4] = Stability in rat microsomes assessed as compound remaining measured after 90 mins; assay type: ADME, Microsome; details: read-out: Stability

| Structure (SMILES) | EC50 (Kir3.1/Kir3.4) [nM] | Efficacy [1] [%] | EC50 (Kir3.1/Kir3.2) [nM] | Efficacy [2] [%] | Activity [3] | remaining at […] [4] [%] |
| --- | --- | --- | --- | --- | --- | --- |
| Cc1ccc(NC(=O)Nc2cc(C3CC3C)nn2CC(F)(F)F)cc1 (stereo unspecified) | 2300 | 100 | 270 | 67 | – | – |
| CC1CC1c1cc(NC(=O)Nc2cccc(F)c2)n(CC(F)(F)F)n1 (stereo unspecified) | 1000 | 100 | 310 | 101 | – | – |
| CC1CC1c1cc(NC(=O)Nc2ccc(F)c(F)c2)n(CC(F)(F)F)n1 (stereo unspecified) | 4900 | 112 | 4900 | 100 | – | – |
| CC1CC1c1cc(NC(=O)Nc2ccc(Cl)cc2)n(CC(F)(F)F)n1 (stereo unspecified) | 1800 | 100 | 150 | 66 | – | – |
| Cc1cc(NC(=O)Nc2cc(C3CC3C)nn2CC(F)(F)F)ccc1F (stereo unspecified) | 1200 | 35 | 700 | 81 | – | – |
| Cc1cc(NC(=O)Nc2ccc(F)c(F)c2)n(-c2ccccc2)n1 | – | – | – | – | inactive | 45 |
| CC1CC1c1cc(NC(=O)Nc2ccc(C(F)(F)F)cc2)n(CC(F)(F)F)n1 (stereo unspecified) | 2000 | 100 | 310 | 70 | – | – |
